Measured values reported in patent US11858935B1, “Pyrrolo[2,3-c][1,7]naphthyridine-2-carboxylic acid compounds as CK2 inhibitors” (KING FAISAL UNIVERSITY, priority 2023, dated 2024).

Columns and labels:
MCF7 (breast) = experiment: In vitro cytotoxic activity (MTT) assay, MCF7; format: cell-based; settings: Homo sapiens; MCF7 (breast) cells, exposed 96 hours; read-out: IC50, concentration eliciting 50% inhibition of cell proliferation
Protocol: (§1) Compounds 1-16 were screened for their in vitro cytotoxic activity utilizing a 3-(4,5-dimethyl-thiazol-2-yl)-2,5-diphenyltetrazolium bromide (MTT) assay against selected cancer human cell lines consisting of PC3 (prostate), HCT116 (colon), A375 (melanoma), H1299 (lung), MIAPaCa-2 (pancreas), HL60 (leukemia), MCF7 (breast), MDA-MB-231 (breast) (T. Mosmann, J. Immunol. Meth., 1983, 65, 55-63). The cells were cultured at 37° C. in RMPI1640 medium supplemented with 10% fetal bovine serum, 50 IU/mL penicillin, and 50 μg/mL streptomycin in a 5% CO2 incubator. All cells were sub-cultured 3 times/week by trypsinisation. Viable cells were seeded and allowed to adhere for 12 h before a test drug was added in 96-well plates at an initial density of 1.0×10^5 cells/mL. Tumor cell lines were separately exposed to various concentrations of the tested compounds followed by incubation at a temperature of 37° C. during 96 h inside a medium of fresh RMPI 1640. Cells were subsequently incubated at 37° C. using MTT at 0.5 mg/mL during 4 h. After removal of supernatant, formazan crystals were dissolved in isopropanol and the optical density was measured at 570 nm. CX-4945 was used as a positive control.

H1299 (lung) = experiment: In vitro cytotoxic activity (MTT) assay, H1299; format: cell-based; settings: Homo sapiens, NCI-H1299; H1299 (lung) cells, exposed 96 hours; read-out: IC50, concentration eliciting 50% inhibition of cell proliferation
Protocol: as §1

A375 (melanoma) = experiment: In vitro cytotoxic activity (MTT) assay, A375; format: cell-based; settings: Homo sapiens, A-375; A375 (melanoma) cells, exposed 96 hours; read-out: IC50, concentration eliciting 50% inhibition of cell proliferation
Protocol: as §1

MDA-MB-231 (breast) = experiment: In vitro cytotoxic activity (MTT) assay, MDA-MB-231; format: cell-based; settings: Homo sapiens; MDA-MB-231 (breast) cells, exposed 96 hours; read-out: IC50, concentration eliciting 50% inhibition of cell proliferation
Protocol: as §1

[1] = biological target: T1, recombinant human CK2 (RRββ-holoenzyme) (Homo sapiens, UniProt P68400); experiment: CK2 Kinase Assay (33P-ATP, substrate peptide RRRDDDSDDD); format: biochemical; settings: final ATP concentration 15 μM, 10 min at 30° C.; read-out: protein kinase CK2 IC50
T1 construct: purchased Millipore
T1 sequence (P68400 whole entry): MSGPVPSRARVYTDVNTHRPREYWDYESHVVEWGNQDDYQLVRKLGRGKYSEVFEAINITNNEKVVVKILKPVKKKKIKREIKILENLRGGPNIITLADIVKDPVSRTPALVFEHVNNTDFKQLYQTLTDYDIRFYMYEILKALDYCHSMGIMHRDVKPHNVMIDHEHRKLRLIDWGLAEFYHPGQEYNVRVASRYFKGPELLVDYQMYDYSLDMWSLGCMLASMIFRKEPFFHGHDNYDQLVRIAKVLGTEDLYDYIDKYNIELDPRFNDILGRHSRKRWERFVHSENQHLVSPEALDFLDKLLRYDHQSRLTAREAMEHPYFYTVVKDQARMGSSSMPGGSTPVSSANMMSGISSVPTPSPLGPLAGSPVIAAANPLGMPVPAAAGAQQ
T1 sequence (P67870 whole entry partner): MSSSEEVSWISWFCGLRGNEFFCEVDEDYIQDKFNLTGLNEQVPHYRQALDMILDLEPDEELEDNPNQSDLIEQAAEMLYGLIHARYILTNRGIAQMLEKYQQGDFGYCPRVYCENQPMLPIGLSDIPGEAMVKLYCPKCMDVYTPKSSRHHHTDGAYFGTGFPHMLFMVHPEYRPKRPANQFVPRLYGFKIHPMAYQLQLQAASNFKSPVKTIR
Protocol: CK2 Kinase Assay was conducted using the protocol as described in Pierre F. et al; J. Med. Chem. 2011, 54, 635-654. The tested compounds in aqueous solution were added at a volume of 10 μL to a reaction mixture comprising 10 μL of assay dilution buffer (ADB; 20 mM MOPS, pH 7.2, 25 mM β-glycerol phosphate, 5 mM EGTA, 1 mM sodium orthovanadate, and 1 mM dithiothreitol), 10 μL of substrate peptide (RRRDDDSDDD, dissolved in ADB at a concentration of 1 mM), 10 μL of recombinant human CK2 (RRββ-holoenzyme, 25 ng dissolved in ADB; Millipore). Reactions were initiated by the addition of 10 μL of ATP solution (90% 75 mM MgCl2, 75 μM ATP (final ATP concentration:15 μM) dissolved in ADB; 10% [γ-33P] ATP (stock 1 mCi/100 μL; 3000 Ci/mmol (Perkin-Elmer) and maintained for 10 min at 30° C. The reactions were quenched with 100 μL of 0.75% phosphoric acid and then transferred to and filtered through a phosphor cellulose filter plate (Millipore). After washing each well five times with 0.75% phosphoric acid, the plate was dried under vacuum for 5 min and, following the addition of 15 μL of scintillation fluid to each well, the residual radioactivity was measured using a Wallac […]. The IC50 values were derived from eight concentrations of test inhibitors.

HCT116 (colon) = experiment: In vitro cytotoxic activity (MTT) assay, HCT116; format: cell-based; settings: Homo sapiens, HCT-116; HCT116 (colon) cells, exposed 96 hours; read-out: IC50, concentration eliciting 50% inhibition of cell proliferation
Protocol: as §1

PC3 (prostate) = experiment: In vitro cytotoxic activity (MTT) assay, PC3; format: cell-based; settings: Homo sapiens, Prostate cell; PC3 (prostate) cells, exposed 96 hours; read-out: IC50, concentration eliciting 50% inhibition of cell proliferation
Protocol: as §1

MIAPaCa-2 (pancreas) = experiment: In vitro cytotoxic activity (MTT) assay, MIAPaCa-2; format: cell-based; settings: Homo sapiens, MIA PaCa-2; MIAPaCa-2 (pancreas) cells, exposed 96 hours; read-out: IC50, concentration eliciting 50% inhibition of cell proliferation
Protocol: as §1

HL60 (leukemia) = experiment: In vitro cytotoxic activity (MTT) assay, HL60; format: cell-based; settings: Homo sapiens, HL-60; HL60 (leukemia) cells, exposed 96 hours; read-out: IC50, concentration eliciting 50% inhibition of cell proliferation
Protocol: as §1

IC50 [1]: 0.026 µM
SMILES: O=C(O)c1cc2c([nH]1)c(Nc1cccc(Cl)c1)nc1cnccc12 [Compound 1, 4-((3-chlorophenyl)amino)-3H-pyrrolo[2,3-c][1,7]naphthyridine-2-carboxylic acid]
IC50 (MCF7 (breast)): 4.2 µM | IC50 (H1299 (lung)): 1.4 µM | IC50 (A375 (melanoma)): 2.3 µM | IC50 (MDA-MB-231 (breast)): 3.6 µM | IC50 (HCT116 (colon)): 1.8 µM | IC50 (PC3 (prostate)): 1.5 µM | IC50 (MIAPaCa-2 (pancreas)): 1.7 µM | IC50 (HL60 (leukemia)): 3.1 µM
